The results in this text go back to ChEMBL document CHEMBL1129785, “Preparation and structure-activity relationship of novel P1/P1'-substituted cyclic urea-based human immunodeficiency virus type-1 protease inhibitors” (J Med Chem, 1996).

Assay [1] addresses Human immunodeficiency virus type 1 protease (Human immunodeficiency virus 1) (UniProt Q72874). Briefly: Ability to increase whole-cell antiviral efficacy through better translation defined as the ratio between IC90 and Ki. The assay is classed as functional.
Assay [2] relates to Human immunodeficiency virus 1. Briefly: Antiviral potency was assessed by measuring the effect on accumulation of viral RNA transcripts 3 days after infection of MT-2 cells with HIV-1 RF. It counts as functional, MT2. The note with it: Human immunodeficiency virus 1, MT2, 72 h.
Assay [3] deals with Human immunodeficiency virus type 1 protease (Human immunodeficiency virus 1, UniProt Q72874). Briefly: Inhibitory activity against HIV protease.

By IC90 is commonly meant the point of the concentration-response curve where the effect stands at 90%. Usually Ki stands for the dissociation constant of the complex between target and ligand, obtained from inhibition or displacement. As to `O=C1N(Cc2ccc(CO)cc2)[C@H](Cc2ccccc2)[C@H](O)[C@@H](O)[C@@H](Cc2ccccc2)N1Cc1ccc(CO)cc1` [DMP-323], the Ratio in assay [1] came to 500. This molecule yielded an IC90 in assay [2] of 136 nM. For the same molecule, the Ki in assay [3] is 0.27 nM.
The corresponding values for `COc1ccccc1C[C@@H]1[C@H](O)[C@@H](O)[C@@H](Cc2ccccc2OC)N(Cc2ccccc2)C(=O)N1Cc1ccccc1` are 150, 8800 nM and 60 nM.
